Results as given in ChEMBL document CHEMBL1201862, “PubChem BioAssay data set” (2004).
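Where inhibition never reached the appropriate level, the endpoint shown equals the highest concentration tested. Otherwise, values were interpolated linearly from a five-concentration, 48-hour dose response in 96-well plates. At the GI50, growth is halved.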 Active and inactive are the calls of the source. Rule as the data show it: active = GI50 up to about 1.1 µM and inactive = higher.

Key:
Assay in all cases: NCI-60 cell line screen, 48 h
SNB-78 = test system: SNB-78
NCI-H522 = test system: NCI-H522
HCC 2998 = test system: HCC 2998
SN12C = test system: SN12C
T47D = test system: T47D
HOP-18 = test system: HOP-18
A498 = test system: A498
DMS-114 = test system: DMS-114
DLD-1 = test system: DLD-1
786-0 = test system: 786-0
HOP-62 = test system: HOP-62
HL-60 = test system: HL-60
KM-20L2 = test system: KM-20L2
MDA-N = test system: MDA-N
SNB-75 = test system: SNB-75
MDA-MB-435 = test system: MDA-MB-435
NCI-H460 = test system: NCI-H460
Hs-578T = test system: Hs-578T
M19-MEL = test system: M19-MEL

Compound | GI50 (SNB-78) | GI50 (NCI-H522) | GI50 (HCC 2998) | GI50 (SN12C) | GI50 (T47D) | GI50 (HOP-18) | GI50 (A498) | GI50 (DMS-114) | GI50 (DLD-1) | GI50 (786-0) | GI50 (HOP-62) | GI50 (HL-60) | GI50 (KM-20L2) | GI50 (MDA-N) | GI50 (SNB-75) | GI50 (MDA-MB-435) | GI50 (NCI-H460) | GI50 (Hs-578T) | GI50 (M19-MEL)
C/C(=N\N=C(/S)N1CCCCCC1)c1cccc[n+]1[O-] | 11 µM (inactive) | 0.592 µM (active) | 1.71 µM (inactive) | 13.8 µM (inactive) | 3.4 µM (inactive) | 18.2 µM (inactive) | 21.6 µM (inactive) | 0.0198 µM (active) | 0.0279 µM (active) | 1.53 µM (inactive) | 1.12 µM (active) | 0.336 µM (active) | 0.839 µM (active) | 6.47 µM (inactive) | 10.5 µM (inactive) | 9.57 µM (inactive) | 1.8 µM (inactive) | 33 µM (inactive) | 8.39 µM (inactive)
CN(C)CCC1(C2=CCCC2)CC/C(=C\c2ccccc2)C1=O (centres undefined) | 19.7 µM (inactive) | 14.1 µM (inactive) | 15.8 µM (inactive) | 17 µM (inactive) | – | 15.8 µM (inactive) | 15.5 µM (inactive) | 16.1 µM (inactive) | 17.3 µM (inactive) | 14.7 µM (inactive) | 16.1 µM (inactive) | 11.8 µM (inactive) | 13.1 µM (inactive) | – | 17 µM (inactive) | – | 15.9 µM (inactive) | – | 15.2 µM (inactive)
